Read-outs that look alike come from different tables or passages of the source.
Tests used:
IRAK4 = IRAK4 (Homo sapiens (Human), UniProt Q9NWZ3); experiment: IRAK4 Inhibition Assay; format: biochemical; conditions: ATP 500 μM, read-out: IRAK4 IC50
Method in brief: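 Mobility-shift readout: fluorescent substrate and phosphoproduct resolved electrophoretically on Caliper LabChip 3000 after EDTA quench (35 mM). Enzyme reaction of IRAK4, substrates and test compound ran 60 min at room temperature.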

[1] = system: TLR2 induced IL-6 in peripheral blood mononuclear cells (PBMCs); experiment: PBMC TLR2 Induced IL-6 Assay; format: cell-based, human; conditions: IL-6 by ELISA; for EC50: read-out: Cell EC50; for IC50: read-out: Cell IC50
Method in brief: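 Lipoteichoic acid at 10 µg/ml served as TLR2 stimulus for 5 hours, following a 30-minute compound pretreatment at 37° C. Cells were Ficoll-isolated human PBMCs, 250000 cells/well, cultured in RPMI plus 10% heat-inactivated FCS.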

[2] = Homo sapiens, PBMC, PBMC TLR2 Induced IL-6 Assay, lipoteichoic acid stimulation
[3] = Homo sapiens, PBMC, human PBMCs, lipoteichoic acid stimulated

Chain of IRAK4 (Q9NWZ3 whole entry, species assumed): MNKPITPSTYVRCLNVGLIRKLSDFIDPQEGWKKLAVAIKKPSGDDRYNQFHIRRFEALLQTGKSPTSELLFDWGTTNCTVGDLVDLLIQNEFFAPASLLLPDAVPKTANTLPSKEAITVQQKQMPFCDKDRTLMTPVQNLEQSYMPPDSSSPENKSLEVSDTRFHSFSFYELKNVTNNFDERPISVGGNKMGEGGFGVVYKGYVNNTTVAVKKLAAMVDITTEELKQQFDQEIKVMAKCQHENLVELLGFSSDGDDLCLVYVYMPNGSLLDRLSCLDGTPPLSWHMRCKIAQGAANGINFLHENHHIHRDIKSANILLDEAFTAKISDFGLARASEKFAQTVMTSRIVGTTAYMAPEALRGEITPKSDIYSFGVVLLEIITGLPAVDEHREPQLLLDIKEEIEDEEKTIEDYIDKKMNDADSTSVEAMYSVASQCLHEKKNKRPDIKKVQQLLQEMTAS

Row | SMILES | IC50 (IRAK4; IRAK4 Inhibition Assay) [nM] | EC50 [1, 2] [nM] | IC50 [1, 2] [nM] | further results
1 | CC(C)(O)[C@H](F)CNC(=O)c1cnc(-n2ccc3cc(C#N)cnc32)cc1N[C@H]1CC[C@@](C)(O)CC1 [Example 61, 6-(5-cyano-1H-pyrrolo[2,3-b]pyridin-1-yl)-N—((R)-2-fluoro-3-hydroxy-3-methylbutyl)-4-(((1s,4S)-4-hydroxy-4-methylcyclohexyl)amino)nicotinamide] | 1.3 | 34 |  | 
2 | CC(C)Nc1cc(-n2ncc3cc(C#N)cnc32)ncc1C(=O)NCC(F)C1(O)COC1 (stereo not shown) [Example 249] | 6.1 |  |  | IC50 ([1]; PBMC TLR2 Induced IL-6 Assay, lipoteichoic acid stimulation): 355 nM
3 | CC(C)(O)[C@H](F)CNC(=O)c1cnc(-n2ncc3cc(C#N)cnc32)cc1NC1CCN(c2ncc(F)cn2)CC1 [Example 540] |  |  |  | IC50 (IRAK4; IRAK4 0.6 nM): 3 nM; IC50 [1, 3]: 158 nM
4 | CC(C)Nc1cc(-n2ncc3cc(C#N)cnc32)ncc1C(=O)Nc1ccc(N2CCOCC2)nc1 [Example 216] | 4.5 | 253 |  | 
5 | CC(C)Nc1cc(-n2ncc3cc(C#N)cnc32)ncc1C(=O)NC1CCN(S(=O)(=O)NC(C)C)CC1 [Example 309] | 18.4 |  | 207 | 
6 | CC(C)(O)[C@H](F)CNC(=O)c1cnc(-n2ncc3cc(C#N)cnc32)cc1N[C@@H]1CCN(c2ncc(F)cn2)C1 [Example 532, 6-(5-Cyano-1H-pyrazolo[3,4-b]pyridin-1-yl)-N—((R)-2-fluoro-3-hydroxy-3-methylbutyl)-4-(((R)-1-(5-fluoropyrimidin-2-yl)pyrrolidin-3-yl)amino)nicotinamide] |  |  |  | IC50 (IRAK4; IRAK4 0.6 nM): 5.5 nM; EC50 ([1]; human PBMCs, lipoteichoic acid stimulated): 127 nM
7 | CC(C)Nc1cc(-n2ncc3cc(C#N)c(N)nc32)ncc1C(=O)NCCC1CC1 [Example 299] | 6.3 |  | 252 | 
8 | CC(C)Nc1cc(-n2ncc3cc(C#N)cnc32)ncc1C(=O)NCCN1CCS(=O)(=O)CC1 [Example 211] | 8.1 | 87 |  | 
9 | CC(C)(O)[C@H](F)CNC(=O)c1cnc(-n2ncc3cc(C#N)cnc32)cc1NC1CCOCC1 [Example 141, (R)-6-(5-cyano-1H-pyrazolo[3,4-b]pyridin-1-yl)-N-(2-fluoro-3-hydroxy-3-methylbutyl)-4-((tetrahydro-2H-pyran-4-yl)amino)nicotinamide] | 2.2 | 87 |  | 
10 | CC(C)Nc1cc(-n2ccc3cc(C#N)cnc32)ncc1C(=O)N[C@H]1CC[C@H](O)CC1 [Example 98, 6-(5-cyano-1H-pyrrolo[2,3-b]pyridin-1-yl)-N-((trans)-4-hydroxycyclohexyl)-4-(isopropylamino)nicotinamide] | 3.3 | 176 |  | 
11 | CCCOC(=O)NCc1cnc2c(ccn2-c2cc(NC(C)C)c(C(=O)NC[C@@H](F)C(C)(C)O)cn2)c1 [Example 508] |  |  |  | IC50 (IRAK4; IRAK4 0.6 nM): 2.8 nM; IC50 [1, 3]: 224 nM
12 | CC(C)(O)[C@H](F)CNC(=O)c1cnc(-n2ncc3cc(C#N)cnc32)cc1Nc1cnn(-c2ncccn2)c1 [Example 410] |  |  |  | IC50 (IRAK4; IRAK4 0.6 nM): 1.5 nM; EC50 [1, 3]: 92 nM
13 | CC(=O)N[C@H]1CC[C@H](NC(=O)c2cnc(-n3ccc4cncnc43)cc2NC2CCOCC2)CC1 [Example 83, N-((trans)-4-acetamidocyclohexyl)-6-(7H-pyrrolo[2,3-d]pyrimidin-7-yl)-4-((tetrahydro-2H-pyran-4-yl)amino)nicotinamide] | 4.9 | 443 | 777 | 
14 | CC(C)Nc1cc(-n2ncc3cc(C#N)cnc32)ncc1C(=O)NC[C@@H](F)C(C)(C)F [Example 308] | 3 |  | 73 | 
15 | CCn1cc(Nc2cc(-n3ccc4cc(C#N)cnc43)ncc2C(=O)NC[C@@H](F)C(C)(C)O)cn1 [Example 372] | 1.2 |  | 2 | 
16 | CC(C)Nc1cc(-n2ncc3cc(C#N)cnc32)ncc1C(=O)NCCC1CCCCO1 (stereo not shown) [Example 220] | 6.5 | 168 |  | 
17 | CC(C)Nc1cc(-n2ncc3cc(Cl)cnc32)ncc1C(=O)NC[C@@H](F)C(C)(C)F [Example 330] | 4.3 |  | 512 | 
18 | Cc1cc(Nc2cc(-n3ncc4cc(C#N)cnc43)ncc2C(=O)NC[C@@H](F)C(C)(C)O)n(C)n1 [Example 413] |  |  |  | IC50 (IRAK4; IRAK4 0.6 nM): 7 nM; IC50 [1, 3]: 382 nM

Reference: US9169252B2 (BRISTOL-MYERS SQUIBB COMPANY, priority 2014, dated 2015)
